Assay results as given in publication PMC9252588 (Drug Design, Development and Therapy, 2022).
One block for each compound: values may come before it.

Key:
[1] = system: rat liver microsomes (RLMs); assay: Enzymatic kinetics of axitinib inhibition of buspirone metabolism in RLMs; type: in vitro ADME
[2] = system: buspirone 6′-hydroxylation (formation of 6′-OH buspirone); assay: in vitro; conditions: rat, rat liver microsomes
[3] = system: buspirone N-dealkylation (formation of 1-PP); assay: in vitro; conditions: rat, rat liver microsomes
[4] = Pharmacokinetics of buspirone and metabolites with or without axitinib in rats; type: in vivo, Sprague–Dawley rats; conditions: increased to % of group A
[5] = in vivo; cited from earlier work
[6] = Pharmacokinetic pre-experiment: ritonavir before buspirone in rats; type: in vivo; conditions: ritonavir (positive inhibitor) administered before buspirone

SMILES: CNC(=O)c1ccccc1Sc1ccc2c(/C=C/c3ccccn3)n[nH]c2c1 [axitinib]
α value ([1]; buspirone 6′-hydroxylation): 2.139
α value ([1]; buspirone N-dealkylation): 5.434

Km at 40 min [2]: 23 µM
Km at 40 min [3]: 26.3 µM
AUC(0-t), group B compared with group A [4]: 530%
Cmax, group B compared with group A [4]: 420%
Tmax, group B compared with group A [4]: 150%
SMILES: O=C1CC2(CCCC2)CC(=O)N1CCCCN1CCN(c2ncccn2)CC1 [buspirone, 8-(4-(4-(2-pyrimidinyl)-1-piperizinyl)butyl)-8-azaspiro(4,5)decane-7,9-dione]
absorbed in the alimentary canal [5]: ~100%

SMILES: CC(C)c1nc(CN(C)C(=O)N[C@H](C(=O)N[C@@H](Cc2ccccc2)C[C@H](O)[C@H](Cc2ccccc2)NC(=O)OCc2cncs2)C(C)C)cs1 [ritonavir]
blood concentrations of buspirone [6]: extremely high blood concentrations of buspirone
symptoms compared with the control [6]: symptoms of inhibition of respiration and near-death
